The record followed here is patent publication US8809283B2, “Proteasome inhibitors and uses thereof” (Natuderm, LLC, priority 2005, dated 2014).

The test system of one experiment is SVR cells. Kind of experiment: SVR cell proliferation assay. The note with it: 10 mg/ml, 72 hours exposure, Coulter Counter. The class given is cell-based. The procedure:
The filtered aqueous extract was lyophilized to a dry powder, which was dissolved in distilled water and analyzed by HPLC, and 5 fractions were collected. HPLC fractions were lyophilized. Each fraction was reconstituted into 10 mg/ml solutions, and the ability to inhibit proliferation of SVR cells was tested.
SVR cells (1×10^4) were plated for 24 hours in a 24-well plate. The media was then changed to DMEM containing purified extract at a concentration of 10 mg/ml. Cells were exposed to drug for 72 hours and were counted with a Coulter Counter (Coulter, Hialeah, Fla.) according to the method of Lamontagne et al (LaMontagne et al., (2000) Am. J. Pathol. 157, 1937-1945). […] In order to determine the component of mate tea responsible, the aqueous extract was fractionated by HPLC, and the ability of the fractions to inhibit SVR cell proliferation was assessed. […] The structures of T-2, T-5, and T-6 were elucidated by proton NMR and mass spectroscopy (FIG. 1). […] The NMR spectra of the compounds are shown below.

Experiment [1] addresses purified prokaryotic 20S proteasome (Methanosarcina thermophila, UniProt Q9P992). Kind of experiment: Chymotrypsin-like activity of purified 20S proteasome (fluorogenic substrate Suc-Leu-Leu-Val-Tyr-AMC). The following applies: for inhibition at 100 µM: read-out: inhibition of proteasomal chymotrypsin-like activity. Format: biochemical. The procedure:
This example describes the how to analyze the inhibitory effect of isolated fractions of mate tea in vitro, using purified 20S proteasome. The chymotrypsin-like activity of purified 20S proteasome was measured as previously described (Nam et al., (2001) J. Biol. Chem. 276, 13322-13330). Briefly, purified prokaryotic 20S proteasome (0.5 μg) was incubated with 20 μM fluorogenic peptide substrate, Suc-Leu-Leu-Val-Tyr-AMC for 30 min at 37° C. in 100 μl of assay buffer (50 mM Tris-HCl, pH 7.5), with or without a mate tea fraction at indicated concentrations. After incubation, production of hydrolyzed 7-amido-4-methyl-coumarin (AMC) groups was measured using a multi-well plate VersaFluor™ Fluorometer with an excitation filter of 380 nm and an emission filter of 460 nm (Bio-Rad).
The quinic acid esters resemble the proteasome inhibitor (−)-epigallocatechin gallate [(−)-EGCG] in that they contain hydroxylated aromatic carboxylic acids esterified to a polyhydroxylated aliphatic ring (FIG. 3). Based upon this similarity, and the previous finding that epigallocatechin gallate is an inhibitor of proteasomes (Ren et al., (2000) Oncogene 19, 1419-1427; Nam et al., (2001) J. Biol. Chem. 276, 13322-13330)), the ability of fractions T-2, T-5, and T-6 to inhibit proteasome function was assessed. To determine the ability of quinic acid esters to inhibit proteasome activity, a fluorescent substrate activity assay was performed with purified 20S proteasome. Epigallocatechin gallate (EGCG, Sigma Chemical Company, St Louis, Mo.) was used as a positive control for proteasome inhibition. To ensure complete inhibition of the proteasome, 100 μM EGCG was used. The compound 3,5-dicaffeoylquinic acid (3,5-DCQ) was tested against proteasome activity in three different concentrations: 20, 100, and 200 μg/ml, which correspond to 37, 183, and 366 μM respectively (FIG. 4).

For experiment [2], the target named is T1, 26S proteasome in Jurkat T cell extracts (Homo sapiens, UniProt P28074).
T1 construct: Whole cell extracts (20 μg) of Jurkat T cells; endogenous in cells; host or cells: Jurkat T cells (whole cell extract)
T1 sequence (P28074 60-263): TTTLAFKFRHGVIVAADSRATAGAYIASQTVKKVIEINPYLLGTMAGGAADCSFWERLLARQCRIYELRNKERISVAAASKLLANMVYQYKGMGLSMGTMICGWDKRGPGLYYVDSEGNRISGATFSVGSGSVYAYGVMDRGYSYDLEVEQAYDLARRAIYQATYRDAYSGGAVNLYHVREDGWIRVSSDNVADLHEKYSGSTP
Briefly: Proteasome chymotrypsin-like activity in Jurkat T cell extracts. Format: biochemical. The note with it: 60 min at 37° C. The procedure:
This example describes the how to analyze the inhibitory effect of isolated fractions of mate tea in vivo, using cell extracts of the Jurkat cancer cell line. Whole cell extracts (20 μg) of Jurkat T cells were incubated for 60 min at 37° C. with 20 μM of fluorogenic peptide substrate Suc-Leu-Leu-Val-Tyr-AMC in […] of the assay buffer, with or without a mate tea fraction at indicated concentrations. The hydrolyzed AMCs were quantified as described above.
The abilities of 3,5-DCQ and neochlorogenic acid to inhibit the 26S proteasome activity in Jurkat cell extracts was tested.

In another experiment the test system is Jurkat T cells. Kind of experiment: Cell cycle analysis of Jurkat T cells by flow cytometry (propidium iodide). The class given is cell-based. The following applies: for arrest of Jurkat cells in G2/M phase: 2 μg/ml for 24 h; for increase of G2/M population: 20 μg/ml for 24 h. As to the method:
To investigate the inhibitory effect of the fractions on cell cycle, Jurkat cells exposed to each fraction were analyzed by flow cytometry. Cell cycle analysis based on DNA content was performed as described previously (See Nam et al., 2001). The cell cycle distribution is shown as the percentage of cells containing G1, S, G2, and M DNA judged by propidium iodide staining.
The proteasome-inhibitory potencies of 3,5-DCQ and neochlorogenic acid were identified as being associated with growth-inhibitory activity in vivo, based on treating Jurkat T cells with each compound at a concentration of 2 or 20 μg/ml for 24 h. After treatment, the cells were harvested and assayed by flow cytometry. […] In contrast, neochlorogenic acid at the same concentrations had no effects.
For orientation: Flow cytometry measures light scatter and fluorescence of single cells or particles in a stream.

Experiment [3] concerns inositol-1,4,5-triphosphate 3 kinase (GgIP3K-A). Kind of experiment: Inositol-1,4,5-triphosphate 3 kinase activity assay (Mayr et al.). The class given is biochemical. The following applies: FIG. 6. As to the method:
An assay was performed as described in Mayr et al., (2005) J. Biol. Chem. 280: 13229-13240, incorporated herein by reference. […] Inhibition of the kinase activity may be important in HIV.

Where [4] appears, read: at 100 μM, purified 20S proteasome.
The mark [5] stands for this setting: at 20 μg/ml (37 μM 3,5-DCQ; 56 μM neochlorogenic acid).
The mark [6] stands for this setting: at 100 μg/ml (183 μM 3,5-DCQ; 282 μM neochlorogenic acid).

Like-named read-outs stand apart in the source and are kept apart here.

purified prokaryotic 20S proteasome, sequence (Q9P992 10-210): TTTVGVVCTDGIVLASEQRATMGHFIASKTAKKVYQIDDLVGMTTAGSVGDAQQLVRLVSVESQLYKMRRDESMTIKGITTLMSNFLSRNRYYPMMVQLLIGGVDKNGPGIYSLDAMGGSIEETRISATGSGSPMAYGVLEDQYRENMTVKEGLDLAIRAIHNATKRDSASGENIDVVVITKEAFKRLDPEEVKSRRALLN
purified prokaryotic 20S proteasome, sequence (Q59565 whole entry, further chain): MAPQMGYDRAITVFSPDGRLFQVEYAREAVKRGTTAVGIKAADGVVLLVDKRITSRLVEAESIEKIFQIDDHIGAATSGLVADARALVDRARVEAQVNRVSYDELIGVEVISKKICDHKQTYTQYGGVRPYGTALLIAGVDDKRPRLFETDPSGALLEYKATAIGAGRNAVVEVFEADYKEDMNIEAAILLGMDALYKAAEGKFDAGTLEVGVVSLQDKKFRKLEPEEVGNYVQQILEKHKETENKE

As for `O=C(/C=C/c1ccc(O)c(O)c1)O[C@@H]1[C@H](O)C[C@@](O)(C(=O)O)C[C@H]1OC(=O)/C=C/c1ccc(O)c(O)c1` (stereo in doubt) [T-6, 3,4-Dicaffeoylquinic acid], in the experiment on SVR cells, the “inhibition of SVR cell proliferation” value is “most potent inhibitory effects”. Besides, the “inhibition of proteasomal chymotrypsin-like activity” value in experiment [1] (setting [4]) is listed as 40%.

One may read the inhibition as the change of the read-out against control, counted positive when it falls. `O=C(C=Cc1ccc(O)c(O)c1)OC1CC(O)(C(=O)O)CC(OC(=O)C=Cc2ccc(O)c(O)c2)C1O` (stereo not shown) [3,5-DCQ, 3,5-Dicaffeoylquinic acid]: the “inhibition of SVR cell proliferation” value with SVR cells is on record as “most potent inhibitory effects”. For the same molecule, in experiment [1] (setting [4]), the inhibition at 100 µM was 60%. Further, the inhibition at 20 µg/mL in experiment [2] (setting [5]) was approximately 50%. In addition, the inhibition at 100 µg/mL in experiment [2] (setting [6]) was approximately 85%. Moreover, in the experiment with Jurkat T cells, the “arrest of Jurkat cells in G2/M phase” value is “very slight arrest” and the “increase of G2/M population” value is on record as approximately 10%.

For the molecule `CC(C)(C)c1cc(CCC(=O)OCC(COC(=O)CCc2cc(C(C)(C)C)c(O)c(C(C)(C)C)c2)(COC(=O)CCc2cc(C(C)(C)C)c(O)c(C(C)(C)C)c2)COC(=O)CCc2cc(C(C)(C)C)c(O)c(C(C)(C)C)c2)cc(C(C)(C)C)c1O` [PTTC, Pentaerythritol tetrakis (3,5-di-tert-butyl-4-hydroxyhydrocinnamate), reference compound], the “activity against proteasomes (qualitative)” value in experiment [1] (used as a control, chymotrypsin-like proteasome activity (FIG. 5)) is “activity against proteasomes”. Also, the “inhibition of IP-3 kinase activity (qualitative)” value in experiment [3] is “inhibit”.

Consider `O=C(C=Cc1ccc(O)c(O)c1)OC1CC(O)(C(=O)O)CC(O)C1O` (stereo not shown) [neochlorogenic acid, 5-Caffeoylquinic acid], for which the “inhibition of SVR cell proliferation” value in the experiment on SVR cells is reported as “most potent inhibitory effects”. In addition, the inhibition at 100 µM in experiment [1] is 21%. In addition, the “inhibition of 26S proteasome activity in Jurkat cell extracts” value in experiment [2] (setting [5]) was approximately 30%. The “inhibition of 26S proteasome activity in Jurkat cell extracts” value in experiment [2] (setting [6]) was approximately 75%. Besides, in the experiment on Jurkat T cells, the “arrest of Jurkat cells in G2/M phase” value is recorded as “no effects” and the “increase of G2/M population” value is recorded as “no effects”.
